Consider 21 compounds from patent US10874743B2, “IRAK degraders and uses thereof” (Kymera Therapeutics, Inc., priority 2017, dated 2020).

In experiment [1] the target is T1, IRAK4 (Homo sapiens, UniProt Q9NWZ3).
T1 sequence (Q9NWZ3 1-460): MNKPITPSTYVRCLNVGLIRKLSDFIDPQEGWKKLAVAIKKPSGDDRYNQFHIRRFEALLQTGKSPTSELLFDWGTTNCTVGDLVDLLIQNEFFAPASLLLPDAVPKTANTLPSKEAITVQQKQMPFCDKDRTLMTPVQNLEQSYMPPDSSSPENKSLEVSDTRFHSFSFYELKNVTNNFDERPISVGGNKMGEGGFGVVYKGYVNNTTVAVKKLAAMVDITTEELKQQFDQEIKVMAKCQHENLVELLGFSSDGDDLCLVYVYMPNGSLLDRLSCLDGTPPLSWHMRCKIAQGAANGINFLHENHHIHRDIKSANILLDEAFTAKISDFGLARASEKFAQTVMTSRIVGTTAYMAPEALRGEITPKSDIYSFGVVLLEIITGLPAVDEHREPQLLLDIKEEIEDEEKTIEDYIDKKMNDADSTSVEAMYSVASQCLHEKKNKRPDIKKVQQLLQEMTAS
In words: OCI-LY-10 degradation assay (western blot, % IRAK4 degraded after 4 hours). The format is cell-based. More on the design: endogenous in cells; host or cells: OCI-LY10. As to conditions: OCI-LY10 cells, 4 hours; for OCI-LY10 % IRAK4 Degradation (0.01 uM): 0.01 uM compound; for OCI-LY10 % IRAK4 Degradation (0.1 uM): 0.1 uM compound; for OCI-LY10 % IRAK4 Degradation (1 uM): 1 uM compound. An outline of the steps: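 IRAK4 loss after 4 h at 37° C was scored A (>50%), B (>20-50%) or C (<20%) from infrared western blots of RIPA lysates, 20-25 μg protein per lane. Compound was applied at 0.003-10 μM final to OCI-LY10 cells cultured in RPMI-1640 with 20% FBS and 55 μM 2-ME.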
(In western blotting, separated proteins are transferred to a membrane and probed.)

Experiment [2] concerns the target T1, IRAK4. In words: OCI-LY-10 MSD assay for IRAK4 DC50. The format is cell-based. To be noted: OCI-LY10 cells, 4 hr incubation, concentration required to degrade 50% of protein. The arrangement: endogenous in cells; host or cells: OCI-LY10. The procedure: A MSD assay was run to determine the concentration of compound required to degrade 50% of protein (DC50).
Day 1 • Compounds were reconstituted to 10 mM in stock solutions. The stock solutions were diluted to 5 mM and 45 μL of each dilution was transferred to a 384 pp-plate. A 3 fold, 8-point serial dilution was performed by transferring 15 μL of compound into 30 μL DMSO using Janus. • 20 nL of each compounds were added into each well of a 96-well plate (Corning3799). • OCI-Ly10 cells were seeded into the 96-well plate at 3.0*10e^5 cells/100 μL/well. • The cell plate was shaken at 720 rpm for 5 min and incubated for 4 hr. • The 100 μL of cells were transferred into the 96-PCR plate and spun down at high speed for 5 mins. • The supernatant was discarded and 100 μL of RIPA lysis buffer with proteinase inhibitors was added per well. The plate was then sealed and shaken at 600 rpm and 4° C. for about 20 min. • The plate was then spun down at high speed (about 3200 g) for 30 min and then frozen in a −80° C. fridge. • A bare MSD plate (L15XA-3) was coated with 2 μg/mL of capture antibody (mouse Anti-IRAK4 antibody [2H9], ab119942) in PBS to 40 μL/well and incubated overnight at 4° C.
Day 2 • The MSD coated plate was washed 3× (150 μL/well) with 1×TBST (CST #9997S). • The MSD plate was then blocked with 150 μL of blocking buffer [3% Blocker A (MSD, R93BA-4) in TBST]/well and shaken for 1 hr at R^† and 600 rpm. • The MSD plate was washed 3× (150 μL/well) with 1×TBST. The sample RIPA lysates were then added to the MSD plate (50 μL/well) and shaken for 1 hr at R^† and 600 rpm. • The MSD plate was washed 3× (150 μL/well) with 1×TBST and the primary detection antibody (Rabbit Anti-IRAK4 antibody [Y279], ab32511) was added to a final concentration of 1 μg/ml with 25 μL/well. The plate was then shaken for 1 hr at RT and 600 rpm. • The MSD plate was washed 3× (150 μL/well) with 1×TBST and the secondary detection antibody, SULFO-TAG anti-species antibody (Anti Rabbit Antibody (R32AB-5) MSD, R32AB-1) was added to a volume of 25 μL/well at a final concentration of 1 jag/ml. The plate was then shaken for 1 hr at RT and 600 rpm. • The MSD plate was then washed 3× (150 μL/well) with 1×TBST. • lx MSD reading buffer was then added (150 μL/well) and the plate was diluted with 4× water. (MSD, R92TC-2) • The MSD instrument was then read.
Data Analysis • The remaining activity was calculated following the formula below:
Calculate • The DC50 was calculated by fitting the Curve using Xlfit (v5.3.1.3), equation 201: Y=Bottom+(Top−Bottom)/(1+10^((Log IC50−X)*HillSlope))
OCI-LY-10 DC50 results. The letter codes for IRAK4 DC50 indicate the concentration of compound required to degrade 50% of protein: A (<0.05 μM), B (0.05-0.1 μM), C (0.1-0.5 μM), D (0.5-1.0 μM), and E (>1.0 μM).

Structures are written as SMILES. Some results are limits rather than exact numbers.

With `O=C1CCC(N2C(=O)c3ccc(CCCOCCNCc4ccc(-n5cc(NC(=O)c6coc(-c7ccnc(NCC8CC8)c7)n6)c(C(F)F)n5)cc4)cc3C2=O)C(=O)N1` (stereo not drawn) [I-381], at IRAK4 [1], the “OCI-LY10 % IRAK4 Degradation (0.01 uM)” value is recorded as “B (>20-50% degradation)”, the “OCI-LY10 % IRAK4 Degradation (0.1 uM)” value was “A (>50% degradation)” and the “OCI-LY10 % IRAK4 Degradation (1 uM)” value is listed as “A (>50% degradation)”. The 50% degradation concentration (DC50) – broadly, the midpoint of the concentration-degradation curve – on IRAK4 [2] is less than 50 nM.

Regarding `NC(=O)c1nn(-c2ccc(C(=O)NCCOCCOCCCc3cccc4c3oc(=O)n4C3CCC(=O)NC3=O)cc2)cc1NC(=O)c1coc(-c2ccnc(NCC(F)(F)F)c2)n1` (stereo not drawn) [I-266], on IRAK4 [1], the “OCI-LY10 % IRAK4 Degradation (0.01 uM)” value is “C (<20% degradation)”, the “OCI-LY10 % IRAK4 Degradation (0.1 uM)” value is “A (>50% degradation)” and the “OCI-LY10 % IRAK4 Degradation (1 uM)” value is “A (>50% degradation)”. The compound also had a DC50 on IRAK4 [2] of less than 50 nM.

As for `O=C1CCC(N2C(=O)c3ccc(N4CCN(CCOCCOCCNC(=O)c5ccc(-n6cc(NC(=O)c7coc(-c8ccnc(NCC9CC9)c8)n7)c(C(F)F)n6)cc5)CC4)cc3C2=O)C(=O)N1` (stereo not drawn) [I-276], on IRAK4 [1], the “OCI-LY10 % IRAK4 Degradation (0.01 uM)” value is given as “C (<20% degradation)”, the “OCI-LY10 % IRAK4 Degradation (0.1 uM)” value is “B (>20-50% degradation)” and the “OCI-LY10 % IRAK4 Degradation (1 uM)” value is reported as “A (>50% degradation)”. Moreover, the DC50 at IRAK4 [2] is 50 to 100 nM.

`Cn1c(=O)n(C2CCC(=O)NC2=O)c2ccc(CCCOCCCN3CCN(C4CCC(Nc5ncnn6ccc(C7CCOCC7)c56)CC4)CC3)cc21` (stereo not drawn) [I-436, 3-[3-Methyl-2-oxo-5-[3-[3-[4-[4-[(5-tetrahydropyran-4-ylpyrrolo[2,1-f][1,2,4]triazin-4-yl)amino]cyclohexyl]piperazin-1-yl]propoxy]propyl]benzimidazol-1-yl]piperidine-2,6-dione]: the DC50 on IRAK4 [2] was more than 1000 nM.

Consider `CN(CCOCCCc1cccc2c1C(=O)N(C1CCC(=O)NC1=O)C2=O)Cc1ccc(-n2cc(NC(=O)c3coc(-c4ccnc(NCC5CC5)c4)n3)c(C(N)=O)n2)cc1` (stereo not drawn) [I-313], for which, at IRAK4 [2], the DC50 is less than 50 nM.

Turning to `NC(=O)c1nn(-c2ccc(CNCCCOCCCOCCCNc3cccc4c3C(=O)N(C3CCC(=O)NC3=O)C4=O)cc2)cc1NC(=O)c1coc(-c2ccnc(NCC3CC3)c2)n1` (stereo not drawn) [I-398], the DC50 at IRAK4 [2] lay within 100 to 500 nM.

For the compound `O=C1CCC(N2C(=O)c3cccc(NCCOCCOCCNC(=O)c4ccc(-n5cc(NC(=O)c6coc(-c7ccnc(NCC(F)(F)F)c7)n6)c(N6CCN(CCO)C6=O)n5)cc4)c3C2=O)C(=O)N1` (stereo not drawn) [I-428], at IRAK4 [2], the half-maximal degradation concentration (DC50) is less than 50 nM.

On to `Cn1c(=O)n(C2CCC(=O)NC2=O)c2ccc(CCCOCCCOCCCNCc3ccc(-n4cc(NC(=O)c5coc(-c6ccnc(NCC7CC7)c6)n5)c(C(F)F)n4)cc3)cc21` (stereo not drawn) [I-407], for which, at IRAK4 [2], the 50% degradation concentration (DC50) is less than 50 nM.

As to `CNC(=O)c1nn(-c2ccc(CNCCOCCOCCNc3cccc4c3C(=O)N(C3CCC(=O)NC3=O)C4=O)cc2)cc1NC(=O)c1coc(-c2ccnc(NCC(F)(F)F)c2)n1` (stereo not drawn) [I-400], the 50% degradation concentration (DC50) on IRAK4 [2] is less than 50 nM.

As to `Cn1c(=O)n(C2CCC(=O)NC2=O)c2cccc(CCCOCCOCCOCCOCC(=O)N3CCN(C4CCC(Nc5ncnc6[nH]cc(C7CCOCC7)c56)CC4)CC3)c21` (stereo not drawn) [I-444, 3-[3-Methyl-2-oxo-4-[3-[2-[2-[2-[2-oxo-2-[4-[4-[(5-tetrahydropyran-4-yl-7H-pyrrolo[2,3-d]pyrimidin-4-yl)amino]cyclohexyl]piperazin-1-yl]ethoxy]ethoxy]ethoxy]ethoxy]propyl]benzimidazol-1-yl]piperidine-2,6-dione], on IRAK4 [2], the DC50 is 50 to 100 nM.

For the compound `O=C1CCC(N2C(=O)c3cccc(N4CCN(CCOCCOCCOCCNCc5ccc(-n6cc(NC(=O)c7coc(-c8ccnc(NCC9CC9)c8)n7)c(C(F)F)n6)cc5)CC4)c3C2=O)C(=O)N1` (stereo not drawn) [I-391], at IRAK4 [2], the DC50 fell in the range of 100 to 500 nM.

`Cn1c(=O)n(C2CCC(=O)NC2=O)c2cccc(CCCOCCCOCCCNCc3ccc(-n4cc(NC(=O)c5coc(-c6ccnc(NCC7CC7)c6)n5)c(C(F)F)n4)cc3)c21` (stereo not drawn) [I-406]: on IRAK4 [2], the DC50 was less than 50 nM.

Turning to `Cn1c(=O)n(C2CCC(=O)NC2=O)c2cccc(CCCOCCOCCNCc3ccc(-n4cc(NC(=O)c5cnn6ccc(N7CCNCC7)nc56)c(C(F)F)n4)cc3)c21` (stereo not drawn) [I-446, N-[3-(difluoromethyl)-1-[4-[[2-[2-[3-[1-(2,6-dioxo-3-piperidyl)-3-methyl-2-oxo-benzimidazol-4-yl]propoxy]ethoxy]ethylamino]methyl]phenyl]pyrazol-4-yl]-5-piperazin-1-yl-pyrazolo[1,5-a]pyrimidine-3-carboxamide], the DC50 on IRAK4 [2] was in the range of 100 to 500 nM.

For the compound `Cn1c(=O)n(C2CCC(=O)NC2=O)c2ccc(CCCCOCCCCNCc3ccc(-n4cc(NC(=O)c5cnn6ccc(N7CCNCC7)nc56)c(C(F)F)n4)cc3)cc21` (stereo not drawn) [I-441, N-[3-(difluoromethyl)-1-[4-[[4-[4-[1-(2,6-dioxo-3-piperidyl)-3-methyl-2-oxo-benzimidazol-5-yl]butoxy]butylamino]methyl]phenyl]pyrazol-4-yl]-5-piperazin-1-yl-pyrazolo[1,5-a]pyrimidine-3-carboxamide], the half-maximal degradation concentration (DC50) at IRAK4 [2] is more than 1000 nM.

At IRAK4 [2], `COCC(=O)N[C@H](C(=O)N1Cc2cc(OCCOCCOCCOCCNCc3ccc(-n4cc(NC(=O)c5coc(-c6ccnc(NCC7CC7)c6)n5)c(C(F)F)n4)cc3)ccc2CC1C(=O)N[C@@H]1CCCc2ccccc21)C(C)(C)C` (stereo partly drawn) [I-417] yielded a DC50 of more than 1000 nM.

For `NC(=O)c1nn(-c2ccc(CNCCOCCOCCN3CCN(c4cccc5c4C(=O)N(C4CCC(=O)NC4=O)C5=O)CC3)cc2)cc1NC(=O)c1coc(-c2ccnc(NCC3CC3)c2)n1` (stereo not drawn) [I-396], the half-maximal degradation concentration (DC50) on IRAK4 [2] was 50 to 100 nM.

Turning to `Cc1ncsc1-c1ccc(CNC(=O)[C@@H]2C[C@@H](O)CN2C(=O)[C@@H](NC(=O)COCCOCCOCCOCCNC(=O)c2nn(C)cc2NC(=O)c2coc(-c3ccnc(NCC(F)(F)F)c3)n2)C(C)(C)C)cc1` [I-299], the DC50 at IRAK4 [2] was more than 1000 nM.

Regarding `Cn1cc(NC(=O)c2cocn2)c(C(=O)NCCOCCOCCOCCNc2cccc3c2C(=O)N(C2CCC(=O)NC2=O)C3=O)n1` (stereo not drawn) [I-300], the DC50 at IRAK4 [2] is more than 1000 nM.

In the case of `Cn1cc(NC(=O)c2coc(-c3ccnc(NCC(F)(F)F)c3)n2)c(CNCCCOCC(C)(C)COCCCc2cccc3c2n(C)c(=O)n3C2CCC(=O)NC2=O)n1` (stereo not drawn) [I-420], the half-maximal degradation concentration (DC50) at IRAK4 [2] was more than 1000 nM.

As to `O=C1CCC(N2C(=O)c3cccc(NC4CCN(CCOCCOCCNCc5ccc(-n6cc(NC(=O)c7coc(-c8ccnc(NCC9CC9)c8)n7)c(C(F)F)n6)cc5)CC4)c3C2=O)C(=O)N1` (stereo not drawn) [I-334], the DC50 on IRAK4 [2] was 50 to 100 nM.

In the case of `O=C1CCC(N2C(=O)c3cccc(N4CCN(CCOCCNCc5ccc(-n6cc(NC(=O)c7coc(-c8ccnc(NCC9CC9)c8)n7)c(C(F)F)n6)cc5)CC4)c3C2=O)C(=O)N1` (stereo not drawn) [I-390], the DC50 on IRAK4 [2] was in the range of 100 to 500 nM.
